Assay results as given in ChEMBL document CHEMBL1201862, “PubChem BioAssay data set” (2004).
Blank lines part the entries; values can stand above or below the molecule they belong to. Activity calls are given as the source filed them.

Experiments:
[1] = biological target: T1, Sentrin-specific protease 8 (Homo sapiens, UniProt Q96LD8); assay: SENP8 protease inhibitors, SAR follow-up, biochemical, luminescence, set 2 (AID 588601); assay type: functional
T1 sequence (Q96LD8 whole entry): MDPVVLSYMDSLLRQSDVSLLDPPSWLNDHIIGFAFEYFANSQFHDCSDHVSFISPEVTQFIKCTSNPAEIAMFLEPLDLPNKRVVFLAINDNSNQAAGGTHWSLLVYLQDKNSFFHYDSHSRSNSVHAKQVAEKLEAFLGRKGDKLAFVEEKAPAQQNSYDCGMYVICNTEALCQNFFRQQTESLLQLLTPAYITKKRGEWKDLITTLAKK

[2] = biological target: T2, Sentrin-specific protease 7 (Homo sapiens, UniProt Q9BQF6); assay: SENP7 protease inhibitors, SAR follow-up, biochemical, luminescence, set 2 (AID 588600); assay type: functional
T2 sequence (Q9BQF6 whole entry): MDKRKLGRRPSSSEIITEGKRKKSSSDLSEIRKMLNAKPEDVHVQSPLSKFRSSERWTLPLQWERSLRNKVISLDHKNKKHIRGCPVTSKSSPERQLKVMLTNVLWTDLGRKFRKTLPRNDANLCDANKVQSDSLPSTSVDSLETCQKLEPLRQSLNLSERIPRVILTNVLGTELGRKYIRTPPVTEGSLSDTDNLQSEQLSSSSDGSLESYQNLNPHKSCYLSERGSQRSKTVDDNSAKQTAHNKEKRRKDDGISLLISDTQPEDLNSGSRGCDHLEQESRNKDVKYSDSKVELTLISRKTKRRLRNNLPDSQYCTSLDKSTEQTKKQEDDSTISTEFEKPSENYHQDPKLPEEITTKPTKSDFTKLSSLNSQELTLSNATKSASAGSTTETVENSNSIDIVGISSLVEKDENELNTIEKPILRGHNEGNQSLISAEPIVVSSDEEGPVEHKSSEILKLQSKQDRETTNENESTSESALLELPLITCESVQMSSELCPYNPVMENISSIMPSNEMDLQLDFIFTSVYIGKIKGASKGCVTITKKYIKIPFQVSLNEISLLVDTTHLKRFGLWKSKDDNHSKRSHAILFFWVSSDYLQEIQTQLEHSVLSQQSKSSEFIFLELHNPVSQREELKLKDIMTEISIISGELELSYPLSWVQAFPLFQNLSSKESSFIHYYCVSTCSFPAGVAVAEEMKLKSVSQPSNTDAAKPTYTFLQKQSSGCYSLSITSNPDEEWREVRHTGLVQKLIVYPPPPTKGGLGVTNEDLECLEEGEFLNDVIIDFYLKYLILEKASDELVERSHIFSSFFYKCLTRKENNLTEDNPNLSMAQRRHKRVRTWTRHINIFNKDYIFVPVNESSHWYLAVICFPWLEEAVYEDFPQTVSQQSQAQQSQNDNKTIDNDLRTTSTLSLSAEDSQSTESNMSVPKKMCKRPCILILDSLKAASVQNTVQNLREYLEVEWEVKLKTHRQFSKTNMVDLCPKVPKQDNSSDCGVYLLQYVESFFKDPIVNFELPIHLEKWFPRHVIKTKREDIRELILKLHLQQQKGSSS

[3] = biological target: T3, Sentrin-specific protease 6 (Homo sapiens, UniProt Q9GZR1); assay: SENP6 protease inhibitors, SAR follow-up, biochemical, luminescence, set 2 (AID 588598); assay type: functional
T3 sequence (Q9GZR1 whole entry): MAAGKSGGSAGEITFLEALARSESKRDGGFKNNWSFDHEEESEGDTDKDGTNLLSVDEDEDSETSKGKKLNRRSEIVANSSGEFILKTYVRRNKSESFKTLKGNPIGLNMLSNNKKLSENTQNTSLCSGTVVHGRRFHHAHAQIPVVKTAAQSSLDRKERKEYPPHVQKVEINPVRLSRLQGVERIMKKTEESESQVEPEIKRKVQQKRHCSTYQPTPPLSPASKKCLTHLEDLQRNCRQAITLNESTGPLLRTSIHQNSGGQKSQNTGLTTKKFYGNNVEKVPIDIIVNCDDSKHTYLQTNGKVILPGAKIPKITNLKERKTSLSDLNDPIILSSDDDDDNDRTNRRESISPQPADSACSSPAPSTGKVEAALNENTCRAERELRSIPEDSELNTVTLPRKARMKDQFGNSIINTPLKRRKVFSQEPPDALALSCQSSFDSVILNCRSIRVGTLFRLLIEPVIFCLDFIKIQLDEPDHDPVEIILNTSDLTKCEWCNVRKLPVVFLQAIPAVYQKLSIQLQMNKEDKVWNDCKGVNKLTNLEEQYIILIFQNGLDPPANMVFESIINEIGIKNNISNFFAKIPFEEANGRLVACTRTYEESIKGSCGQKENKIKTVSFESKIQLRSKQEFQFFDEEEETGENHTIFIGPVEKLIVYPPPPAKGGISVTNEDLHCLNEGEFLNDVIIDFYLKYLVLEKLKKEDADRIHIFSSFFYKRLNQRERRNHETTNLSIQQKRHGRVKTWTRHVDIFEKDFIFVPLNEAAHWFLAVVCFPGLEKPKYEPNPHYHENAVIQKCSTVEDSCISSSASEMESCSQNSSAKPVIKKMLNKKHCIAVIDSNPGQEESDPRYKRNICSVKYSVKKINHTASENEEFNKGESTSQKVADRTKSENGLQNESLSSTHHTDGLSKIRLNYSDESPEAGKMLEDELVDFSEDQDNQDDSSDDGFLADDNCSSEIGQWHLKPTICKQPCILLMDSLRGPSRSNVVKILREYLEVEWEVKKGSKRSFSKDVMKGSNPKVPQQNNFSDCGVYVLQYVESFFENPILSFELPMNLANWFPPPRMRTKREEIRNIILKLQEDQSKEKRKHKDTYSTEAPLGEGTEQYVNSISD

[4] = biological target: T4, Caspase-3 (Homo sapiens, UniProt P42574); assay: caspase-3 inhibitors as off-family protease, SAR follow-up, selectivity assay for SENP protease inhibitor project, biochemical, luminescence, set 2 (AID 588599); assay type: functional
T4 sequence (P42574 whole entry): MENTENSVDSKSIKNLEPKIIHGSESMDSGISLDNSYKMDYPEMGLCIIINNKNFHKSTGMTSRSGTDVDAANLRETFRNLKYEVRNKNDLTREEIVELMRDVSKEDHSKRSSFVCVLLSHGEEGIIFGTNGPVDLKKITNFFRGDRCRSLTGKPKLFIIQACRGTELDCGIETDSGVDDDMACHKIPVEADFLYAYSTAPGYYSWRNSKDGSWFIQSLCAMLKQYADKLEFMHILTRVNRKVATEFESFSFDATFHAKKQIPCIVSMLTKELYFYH

[5] = system: Candida albicans; assay: single-agent growth inhibition of C. albicans, dose response, counter-screen for antifungal drug resistance project, C. albicans CaCi-2, dry powder (AID 488802); assay type: functional, organism-based
[6] = concentration-dependent intrinsic compound fluorescence, S. cerevisiae AD/pABC3, flow cytometry, Cherry Pick1 hits, artefact control for antifungal efflux pump inhibitor project, dose response (AID 588620); assay type: functional
[7] = biological target: T5, Microphthalmia-associated transcription factor (Homo sapiens, UniProt O75030); assay: TRPM1 promoter luciferase signal decrease, dose response, MITF inhibitor project, cell-based, SK-MEL-5, cherry-picked, set 3 (AID 493073); assay type: functional
T5 sequence (O75030 whole entry): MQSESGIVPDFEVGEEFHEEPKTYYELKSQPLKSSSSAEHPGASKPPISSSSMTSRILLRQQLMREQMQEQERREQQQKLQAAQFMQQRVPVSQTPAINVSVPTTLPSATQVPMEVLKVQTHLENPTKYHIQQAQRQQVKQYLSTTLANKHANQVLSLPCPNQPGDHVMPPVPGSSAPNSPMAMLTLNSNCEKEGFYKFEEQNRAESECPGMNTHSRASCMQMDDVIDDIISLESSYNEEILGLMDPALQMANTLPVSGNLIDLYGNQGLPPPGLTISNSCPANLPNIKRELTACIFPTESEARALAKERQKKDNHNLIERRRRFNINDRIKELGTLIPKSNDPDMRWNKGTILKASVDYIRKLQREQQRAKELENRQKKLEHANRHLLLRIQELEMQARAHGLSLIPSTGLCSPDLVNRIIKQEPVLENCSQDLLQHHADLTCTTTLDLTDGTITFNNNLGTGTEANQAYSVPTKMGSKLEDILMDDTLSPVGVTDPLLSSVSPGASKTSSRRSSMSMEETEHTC

[8] = biological target: Protein Wnt-3a (Mus musculus, UniProt P27467); assay: Wnt3a-driven reporter signaling inhibition, dose response, selectivity assay for Gli-SUFU antagonist project, Wnt-LIGHT cells, luminescence (AID 651570); assay type: functional; conditions: read-out: IC50_Mean;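 also: Wnt-LIGHT reporter cells stimulated with conditioned medium from Wnt3a-producing cells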
[9] = system: INS1; assay: beta cell apoptosis inhibitors, cytokine rescue, dose response, luminescence, retest (AID 449756); assay type: functional, cell-based; conditions: Rattus norvegicus;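 also: cell death triggered by IL-1 beta plus TNF-alpha plus IFN-gamma mixture; protective hits raise ATP signal compared with cytokine alone wells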
[10] = Jurkat T cell cytotoxicity, dose response, cytotoxicity control for P. falciparum gametocyte viability project, luminescence (AID 1117277); assay type: functional, cell-based;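 also: potency reflects loss of cellular ATP meaning fewer viable cells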
[11] = P. falciparum late gametocyte killing, dose response, luminescence (AID 1117278); assay type: functional, cell-based;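 also: gametocytes exposed to compound for 24 hours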

Chain of Protein Wnt-3a (P27467 whole entry): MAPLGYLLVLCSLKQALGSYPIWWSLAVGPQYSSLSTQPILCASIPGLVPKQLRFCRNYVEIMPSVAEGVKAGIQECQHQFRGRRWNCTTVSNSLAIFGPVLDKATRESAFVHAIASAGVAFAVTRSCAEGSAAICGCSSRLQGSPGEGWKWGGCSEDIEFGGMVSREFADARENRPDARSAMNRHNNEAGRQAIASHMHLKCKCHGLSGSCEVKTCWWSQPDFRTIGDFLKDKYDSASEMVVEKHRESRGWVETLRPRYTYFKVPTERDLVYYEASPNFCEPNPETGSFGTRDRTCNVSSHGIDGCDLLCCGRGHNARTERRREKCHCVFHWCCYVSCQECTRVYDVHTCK

IC50 [2]: > 99 µM (inactive)
IC50 [3]: > 99 µM (inactive)
IC50 [4]: > 99 µM (inactive)
Compound: O=C(Nc1nc2ccc(SC(F)F)cc2s1)c1cn(-c2ccccc2)nc1-c1ccc(Cl)cc1
IC50 [1]: > 99 µM (inactive)

Compound: Cc1nn(S(C)(=O)=O)c2ccccc12
AC50 [5]: 46.7 µM (active)

Compound: Cc1ccc(-c2c[n+](Cc3ccc(Cl)c(Cl)c3)c3n2CCC3)cc1
EC50 [6]: 43.6 µM (active)
AC50 [7]: 3.74 µM (active)
IC50 [8]: 24.5 µM (inactive)
AC50 [9]: 3.4 µM (active)
IC50 [10]: 43.6 µM (inactive)
IC50 [11]: > 109 µM (inactive)
